In one assay the target is T1, DBH (Homo sapiens, UniProt P09172).
T1 sequence (P09172 1-617): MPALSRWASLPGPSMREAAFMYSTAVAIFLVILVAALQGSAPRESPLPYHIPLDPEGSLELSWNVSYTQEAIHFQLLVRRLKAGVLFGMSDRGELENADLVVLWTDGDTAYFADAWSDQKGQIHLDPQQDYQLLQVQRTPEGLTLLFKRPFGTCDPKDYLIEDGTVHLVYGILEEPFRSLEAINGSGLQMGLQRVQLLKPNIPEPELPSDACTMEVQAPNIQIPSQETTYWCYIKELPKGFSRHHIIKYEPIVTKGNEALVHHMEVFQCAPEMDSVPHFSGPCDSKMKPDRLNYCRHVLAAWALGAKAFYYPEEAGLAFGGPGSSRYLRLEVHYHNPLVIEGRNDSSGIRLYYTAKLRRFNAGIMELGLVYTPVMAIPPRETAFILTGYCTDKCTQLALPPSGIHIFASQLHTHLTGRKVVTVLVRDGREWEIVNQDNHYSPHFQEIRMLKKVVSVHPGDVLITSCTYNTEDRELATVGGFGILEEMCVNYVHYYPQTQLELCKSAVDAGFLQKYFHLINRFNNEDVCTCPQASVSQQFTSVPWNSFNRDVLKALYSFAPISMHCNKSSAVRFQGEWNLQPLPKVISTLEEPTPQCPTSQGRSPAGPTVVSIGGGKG
Conditions: cited from earlier work; for mode of DBH inhibition: literature; for DBH inhibition: literature report.

In assay [1] the test system is Spontaneously hypertensive rats. The experiment in a line: mean arterial blood pressure in spontaneously hypertensive rats. In kind it is in vivo, rat. Conditions: 50 mg/kg intraperitoneally, vs vehicle treated controls. The method, then:
Spontaneously hypertensive rats were treated with 2-(carboxymethylthio)-1-(3,5-difluorobenzyl)imidazole at a dose of 50 mg/kg intraperitoneally, and mean arterial blood pressure was monitored for four hours using an indwelling cannula in the femoral artery. […] The maximal blood pressure reduction was approximately 43 mmHg.

The values below come from patent US4935438A, “Dopamine-β-hydroxylase inhibitors” (SmithKline Beckman Corporation, priority 1987, dated 1990).

Consider `NOCc1ccccc1` [Benzyloxyamine], for which the “mode of DBH inhibition” value on DBH is recorded as “apparently act as competitive inhibitors”.
As for `NNCc1ccccc1` [benzylhydrazine], the “mode of DBH inhibition” value at DBH is “apparently act as competitive inhibitors”.
As for `O=C(O)c1ccc(CCCCCl)cn1` [5-(4-chlorobutyl) picolinic acid], the DBH inhibition result at DBH was “inhibit DBH”.
As to `O=C(O)CSc1nccn1Cc1cc(F)cc(F)c1` [2-(Carboxymethylthio)-1-(3,5-difluorobenzyl)imidazole], in assay [1] (monitored for four hours), the “maximal blood pressure reduction” value was “approximately 43 mmHg” and the “time blood pressure remained significantly reduced” value was determined as 4 h. The “time to significant blood pressure reductions following treatment” value in assay [1] is at most 30 min.
With `O=C(O)c1ccc(CCC(Br)CBr)cn1` (stereo not drawn) [5-(3,4-dibromobutyl)picolinic acid], the DBH inhibition result at DBH is given as “DBH inhibitors”.
For `CCCCc1ccc(C(N)=O)nc1` [Bupicomide, 5(n-butyl)picolinamine], the DBH inhibition result on DBH was “DBH inhibitor”.
`CN(C)C(=S)SCc1ccc(C(=O)O)nc1` [5-(dimethyldithiocarbamoylmethyl)picolinic acid]: the DBH inhibition entry on DBH is reported as “DBH inhibitors”.
